Data set [1] addresses Histone deacetylase 1 (Homo sapiens, UniProt Q13547). Put plainly: Inhibition of recombinant human HDAC1 using p53 (Ac-RHKK(Acetyl)-AMC) as substrate preincubated for 5 mins followed by substrate addition and measured after 90 mins by fluorescence based analysis.
The subject of data set [2] is Mus musculus. Put plainly: Immuno-modulatory activity in C57BL/6 mouse assessed as increase in IL2 expression in CD4+ cells at 10 mg/kg, ip administered 5 days per week for 2 weeks by RT-qPCR analysis. The data set is classed as functional, organism-based. In general terms: Real-time PCR tracks product formation cycle by cycle.
Data set [3] deals with T1, Histone deacetylase 8 (Homo sapiens) (UniProt Q9BY41).
T1 sequence (whole entry): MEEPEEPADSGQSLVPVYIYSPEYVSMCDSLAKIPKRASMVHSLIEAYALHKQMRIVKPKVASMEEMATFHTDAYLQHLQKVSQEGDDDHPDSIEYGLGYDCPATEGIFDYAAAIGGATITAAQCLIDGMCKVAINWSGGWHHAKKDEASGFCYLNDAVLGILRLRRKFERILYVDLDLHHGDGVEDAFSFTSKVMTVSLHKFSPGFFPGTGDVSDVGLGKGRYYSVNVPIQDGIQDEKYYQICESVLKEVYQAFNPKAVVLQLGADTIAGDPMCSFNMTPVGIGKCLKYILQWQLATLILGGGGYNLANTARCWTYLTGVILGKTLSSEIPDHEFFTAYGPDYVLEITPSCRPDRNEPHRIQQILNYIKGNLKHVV
Description: Inhibition of HDAC8 in human Jurkat T cells assessed as upregulation of KLRG1 expression after 6 hrs by RT-qPCR analysis. The data set is classed as cell-based. Conditions: dose 0.1-10 µM, DDE = dose-dependent effect.

Data set [4] addresses T2, Protein deacetylase HDAC6 (Mus musculus) (UniProt Q9Z2V5).
T2 sequence (whole entry): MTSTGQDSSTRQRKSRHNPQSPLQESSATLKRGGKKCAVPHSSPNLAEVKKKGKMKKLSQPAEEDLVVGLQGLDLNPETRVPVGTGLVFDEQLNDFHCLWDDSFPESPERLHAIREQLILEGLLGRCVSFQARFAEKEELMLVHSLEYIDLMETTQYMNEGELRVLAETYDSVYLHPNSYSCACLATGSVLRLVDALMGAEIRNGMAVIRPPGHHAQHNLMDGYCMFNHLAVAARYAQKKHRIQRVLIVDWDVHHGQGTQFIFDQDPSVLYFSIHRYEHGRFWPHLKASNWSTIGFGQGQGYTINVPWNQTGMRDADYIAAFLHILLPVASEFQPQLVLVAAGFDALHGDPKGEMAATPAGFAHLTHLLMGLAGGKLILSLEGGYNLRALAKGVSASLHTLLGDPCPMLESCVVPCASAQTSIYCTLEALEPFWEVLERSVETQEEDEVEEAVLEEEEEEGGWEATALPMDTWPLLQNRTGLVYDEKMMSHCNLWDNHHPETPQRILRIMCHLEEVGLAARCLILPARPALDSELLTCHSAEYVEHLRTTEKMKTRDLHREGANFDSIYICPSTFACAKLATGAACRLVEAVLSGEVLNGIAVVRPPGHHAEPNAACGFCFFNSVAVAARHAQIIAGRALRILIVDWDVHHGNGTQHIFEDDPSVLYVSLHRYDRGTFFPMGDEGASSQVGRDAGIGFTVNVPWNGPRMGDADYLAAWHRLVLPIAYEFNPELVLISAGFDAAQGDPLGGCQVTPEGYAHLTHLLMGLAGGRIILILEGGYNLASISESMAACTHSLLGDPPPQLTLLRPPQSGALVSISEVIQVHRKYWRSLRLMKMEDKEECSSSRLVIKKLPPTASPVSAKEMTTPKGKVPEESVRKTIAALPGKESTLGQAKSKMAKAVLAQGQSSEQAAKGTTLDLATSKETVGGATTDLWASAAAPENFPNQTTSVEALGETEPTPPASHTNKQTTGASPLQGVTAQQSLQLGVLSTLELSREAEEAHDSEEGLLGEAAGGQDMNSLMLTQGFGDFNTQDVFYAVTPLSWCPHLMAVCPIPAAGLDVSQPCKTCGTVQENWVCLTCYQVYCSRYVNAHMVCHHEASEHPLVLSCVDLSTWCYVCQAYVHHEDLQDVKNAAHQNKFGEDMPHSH
Description: Inhibition of HDAC6 in mouse spleen CD4+ T- lymphocytes assessed as increase in H3K27 acetylation level at 5 to 10 uM after 6 hrs by Western blot analysis. The data set is classed as cell-based. To be noted: CD4+ve Th, dose 5-10 µM. (In general: In western blotting, separated proteins are transferred to a membrane and probed.)

Data set [5] has as its target T1, Histone deacetylase 8 (Homo sapiens). Description: Inhibition of HDAC8 in human Jurkat T cells assessed as upregulation of PRDM1 expression at 10 uM after 6 to 12 hrs by RT-qPCR analysis. To be noted: time 6-12 hrs. The data set is classed as cell-based.
Data set [6] shares this target. Put plainly: Inhibition of HDAC8 in human Jurkat T cells assessed as upregulation of PRDM1 expression after 6 hrs by RT-qPCR analysis. The data set is classed as cell-based. To be noted: dose 0.1-10 µM, DDE = dose-dependent effect.
The target is the same in data set [7]. Description: Inhibition of HDAC8 in human Jurkat T cells assessed as upregulation of IL-7R expression at 10 uM after 6 to 12 hrs by RT-qPCR analysis. The data set is classed as cell-based. Conditions: time 6-12 hrs.
Data set [8] concerns Mus musculus. Description: Immuno-modulatory activity in C57BL/6 mouse assessed as increase in proportion of CD8+ cells in spleen at 10 mg/kg, ip administered 5 days per week for 2 weeks by flow cytometry analysis. The data set is classed as functional, organism-based. (In general: A flow cytometer gives signals particle by particle.)
Data set [9] is described as follows: Stability of compound in DMEM/DMSO/acetonitrile at pH 7.4 measured after 12 hrs by HPLC analysis. To be noted: read-out: Stability. The data set is classed as physicochemical.
For data set [10], the target named is T1, Histone deacetylase 8 (Homo sapiens). Put plainly: Inhibition of HDAC8 in human Jurkat T cells assessed as upregulation of GATA3 expression after 6 hrs by RT-qPCR analysis. To be noted: dose 0.1-10 µM, DDE = dose-dependent effect. The data set is classed as cell-based.
For data set [11], the target named is T2, Protein deacetylase HDAC6 (Mus musculus). Put plainly: Inhibition of HDAC6 in mouse spleen CD4+ T- lymphocytes assessed as increase in SMC3 acetylation level at 5 to 10 uM after 6 hrs by Western blot analysis. The data set is classed as cell-based. To be noted: CD4+ve Th, dose 5-10 µM.
Data set [12] is described as follows: Toxicity in C57BL/6 mouse assessed as change in liver weight at 5 to 10 mg/kg, ip administered 5 days per week for 2 weeks by H and E staining based assay. The data set is classed as organism-based. Conditions: in vivo, 336 h, dose 5-10 mg/kg.
Data set [13] in a line: Stability of compound in DMEM/DMSO/acetonitrile at pH 7.4 measured after 48 hrs by HPLC analysis. The data set is classed as physicochemical. To be noted: read-out: Stability.
Data set [14] has as its target T1, Histone deacetylase 8 (Homo sapiens). Put plainly: Inhibition of HDAC8 in human Jurkat T cells assessed as upregulation of BCL6 expression at 10 uM after 6 to 12 hrs by RT-qPCR analysis. The data set is classed as cell-based. Conditions: time 6-12 hrs.
The target is the same in data set [15]. Put plainly: Inhibition of HDAC8 in human Jurkat T cells assessed as upregulation of IL23 expression after 6 hrs by RT-qPCR analysis. The data set is classed as cell-based. Conditions: dose 0.1-10 µM, DDE = dose-dependent effect.
The nature of data set [16]: Stability of compound in DMEM/DMSO/acetonitrile at pH 7.4 measured after 6 hrs by HPLC analysis. The data set is classed as physicochemical. Conditions: read-out: Stability.

SMILES strings stand for the structures. pIC50: −log10 of the molar value. Active and inactive are the calls of the source. No cut-off for these calls is given here.

One may read the pIC50 as −log10 of the IC50, conventionally taken in molar units.

Histone deacetylase 1, sequence (Q13547 whole entry): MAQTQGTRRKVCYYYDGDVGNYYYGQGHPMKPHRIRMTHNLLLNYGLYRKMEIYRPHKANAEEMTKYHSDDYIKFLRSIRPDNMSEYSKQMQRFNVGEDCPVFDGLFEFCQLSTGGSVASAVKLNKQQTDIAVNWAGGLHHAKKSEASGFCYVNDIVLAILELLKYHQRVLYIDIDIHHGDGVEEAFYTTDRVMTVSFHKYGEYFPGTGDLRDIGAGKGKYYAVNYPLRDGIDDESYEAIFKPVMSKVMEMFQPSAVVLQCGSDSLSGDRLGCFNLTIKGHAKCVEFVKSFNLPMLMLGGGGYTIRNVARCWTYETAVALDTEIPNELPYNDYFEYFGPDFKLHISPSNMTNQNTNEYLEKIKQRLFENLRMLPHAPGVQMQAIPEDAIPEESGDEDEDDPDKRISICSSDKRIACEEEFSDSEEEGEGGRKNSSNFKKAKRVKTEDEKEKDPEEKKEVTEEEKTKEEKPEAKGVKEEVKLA

Consider `CCCCCCNNC(=O)c1ccc(-c2ccc(CNC(C)=O)cc2)cc1`, for which, in data set [1], the negative logarithm of the IC50 (pIC50) is 5.74. In addition, the outcome in data set [2] and in data set [8] was Active. The inhibition entry in data set [3], in data set [6], in data set [10] and in [15] was “Dde” each time. The inhibition result in [4], in data set [5], in [7], in [11] and in data set [14] was “Active” throughout. In addition, the remaining at 12 h in data set [9] is 104%. For the same compound, in [12], the Activity result is “Non-Toxic”. The remaining at 48 h in data set [13] came to 104%. For the same compound, in data set [16], the remaining at 6 h was 103%.

Values taken from ChEMBL document CHEMBL5150060 (J Med Chem, 2022).
